The values below come from patent publication US9822126B1, “Substituted 1,2,3-triazol-1-yl-methyl-2,3-dihydro-2-methyl-6-nitroimidazo[2,1-b]oxazoles as anti-mycobacterial agents and a process for the preparation thereof” (priority 2014, dated 2017).

Holding throughout (format): cell-based
Series [1] has as its system macrophage J774 cells line. Description: Cytotoxicity assay (MTT) in macrophage J774 cells. As to conditions: macrophage J774, 24 hrs incubation, tested at 40 μg/ml. The procedure: The study was carried out using macrophage J774 cells line (ATCC-USA). Cells were grown in Rosewell Park Memorial Institute Medium (RPMI) containing 10% fetal calf serum (FCS) and supplemented with 75 mg/liter penicillin, 100 mg/liter streptomycin, 110 mg/liter Sodium pyruvate, 2.38 gm/liter HEPES, 0.05 mM 2 β-mercaptoethanol, and 2 gm/liter NaHCO3, in a humidified atmosphere in 5% CO2 at 37° C., and were sub-cultured at 1:4 ratio once a week.
Cells were plated at a density of 3×10^4 cells/cm^2 and maintained in culture medium for 12 hours. Cells were seeded onto 96-well flat bottom plates and FCS was reduced to 5% for the experiment. Stock solutions of compounds 9 to 37 were prepared fresh to avoid oxidation. Cells were incubated with the compounds (40 μg/ml) for 24 hrs.
After the completion of incubation, the medium was removed and cell viability was evaluated by assaying for the ability of functional mitochondria to catalyze the reduction of 3-(4,5-dimethylthiazol-2-yl)-2,5-diphenyltetrazolium bromide (MTT) to form formazan salt by mitochondrial dehydrogenases, and determined by Elisa reader at 450 nm (Multiskan Spectrum; Thermo Electron Corporation, USA). Percentage cytotoxicity was calculated with respect to the untreated cells.

Series [2] relates to non-replicating stages of M. tuberculosis. Description: MIC against non-replicating M. tuberculosis. As to conditions: Mycobacterium tuberculosis, read-out: MIC Non-replicating strain.
The test system of series [3] is M. tuberculosis H37Rv (ATCC 27294). Description: MIC by broth dilution against M. tuberculosis H37Rv (replicating). As to conditions: Mycobacterium tuberculosis. For orientation: Broth dilution looks for growth in wells or tubes with falling amounts of substance.
The mark [4] stands for this setting: 504 h, broth dilution, 37° C. for 3-weeks, read visually, replicating stage, read-out: MIC M. tb H37Rv.

SMILES strings stand for the structures. Converted amounts (≈) assume the structure as drawn. Read-outs that look alike come from different tables or passages of the source.

Turning to `C[C@]1(Cn2cc(-c3ccc(OC(F)(F)F)cc3)nn2)Cn2cc([N+](=O)[O-])nc2O1` [I1, (R)-2-Methyl-6-nitro-2-((4-(4-(trifluoromethoxy)phenyl)-1H-1,2,3-triazol-1-yl)methyl)-2,3-dihydroimidazo[2,1-b]oxazole], in series [1], the Cytotoxicity was greater than 40 µg/mL. Also, the MIC (usually the lowest concentration found to suppress growth) in series [2] amounted to 4 µg/mL (≈ 9.75 µM); in series [3] (setting [4]), 2 µg/mL (≈ 4.87 µM).

In series [1], `C[C@]1(Cn2cc(-c3ccc(C(F)(F)F)cc3)nn2)Cn2cc([N+](=O)[O-])nc2O1` [I2, (R)-2-Methyl-6-nitro-2-((4-(4-(trifluoromethyl)phenyl)-1H-1,2,3-triazol-1-yl)methyl)-2,3-dihydroimidazo[2,1-b]oxazole] gave a Cytotoxicity greater than 40 µg/mL. For the same molecule, the MIC in series [2] was found to be 8 µg/mL (≈ 20.3 µM); in series [3] (setting [4]), 2 µg/mL (≈ 5.07 µM).

`C[C@]1(Cn2cc(-c3ccc(F)cc3)nn2)Cn2cc([N+](=O)[O-])nc2O1` [I3, (R)-2-((4-(4-Fluorophenyl)-1H-1,2,3-triazol-1-yl)methyl)-2-methyl-6nitro-2,3-dihydro imidazo[2,1-b]oxazole] registered a Cytotoxicity in series [1] greater than 40 µg/mL. Further, the minimal inhibitory concentration (MIC) in series [2] came to 2 µg/mL (≈ 5.81 µM); in series [3] (setting [4]), 1 µg/mL (≈ 2.9 µM).

Regarding `Cc1cc(-c2cn(C[C@@]3(C)Cn4cc([N+](=O)[O-])nc4O3)nn2)ccc1F` [I4, (R)-2-((4-(4-Fluoro-3-methylphenyl)-1H-1,2,3-triazol-1-yl)methyl)-2-methyl-6-nitro-2,3-dihydroimidazo[2,1-b]oxazole], the Cytotoxicity in series [1] is greater than 40 µg/mL. The minimum inhibitory concentration (MIC) came to 4 µg/mL (≈ 11.2 µM) in series [2] and 2 µg/mL (≈ 5.58 µM) in series [3] (setting [4]).

`C[C@]1(Cn2cc(-c3ccc(F)cc3F)nn2)Cn2cc([N+](=O)[O-])nc2O1` [I5, (R)-2-((4-(2,4-Difluorophenyl)-1H-1,2,3-triazol-1-yl)methyl)-2-methyl-6-nitro-2,3-dihydroimidazo[2,1-b]oxazole]: in series [1], the Cytotoxicity is greater than 40 µg/mL. The minimal inhibitory concentration (MIC) in series [2] came out at 8 µg/mL (≈ 22.1 µM); in series [3] (setting [4]) it was 1 µg/mL (≈ 2.76 µM).

In series [1], `C[C@]1(Cn2cc(-c3ccc(Oc4ccccc4)cc3)nn2)Cn2cc([N+](=O)[O-])nc2O1` [I6, (R)-2-Methyl-6-nitro-2-((4-(4-phenoxyphenyl)-1H-1,2,3-triazol-1-yl)methyl)-2,3-dihydroimidazo[2,1-b]oxazole] returned a Cytotoxicity greater than 40 µg/mL. Moreover, the minimum inhibitory concentration (MIC) in series [2] and in series [3] (setting [4]) was 2 µg/mL (≈ 4.78 µM) in each case.

For the molecule `CCCCCc1cn(C[C@@]2(C)Cn3cc([N+](=O)[O-])nc3O2)nn1` [I7, (R)-2-[(4-Pentyl-1H-1,2,3-triazol-1-yl)methyl]-2,3-dihydro-2-methyl-6-nitroimidazo[2,1-b]oxazole], the Cytotoxicity in series [1] is greater than 40 µg/mL. Besides, the MIC stood at 4 µg/mL (≈ 12.5 µM) in series [2] and 2 µg/mL (≈ 6.24 µM) in series [3] (setting [4]).

In series [1], `C[C@]1(Cn2cc(COc3ccc(OC(F)(F)F)cc3)nn2)Cn2cc([N+](=O)[O-])nc2O1` [I8, (R)-2-Methyl-6-nitro-2-((4-((4-(trifluoromethoxy)phenoxy)methyl)-1H-1,2,3-triazol-1-yl)methyl)-2,3-dihydroimidazo[2,1-b]oxazole] returned a Cytotoxicity greater than 40 µg/mL. Further, the MIC in series [2] came to 4 µg/mL (≈ 9.08 µM); in series [3] (setting [4]) it was 2 µg/mL (≈ 4.54 µM).

`C[C@]1(Cn2cc(COc3ccc(C(F)(F)F)cc3)nn2)Cn2cc([N+](=O)[O-])nc2O1` [I9, (R)-2-Methyl-6-nitro-2-((4-((4-(trifluoromethyl)phenoxy)methyl)-1H-1,2,3-triazol-1-yl)methyl)-2,3-dihydroimidazo[2,1-b]oxazole] showed a Cytotoxicity in series [1] greater than 40 µg/mL. Moreover, the minimum inhibitory concentration (MIC) in series [2] was 2 µg/mL (≈ 4.71 µM); in series [3] (setting [4]), 1 µg/mL (≈ 2.36 µM).

In turn, `C[C@]1(Cn2cc(COc3cccc(Cl)c3)nn2)Cn2cc([N+](=O)[O-])nc2O1` [I10, (R)-2-((4-((3-Chlorophenoxy)methyl)-1H-1,2,3-triazol-1-yl)methyl)-2-methyl-6-nitro-2,3-dihydroimidazo[2,1-b]oxazole] gave a Cytotoxicity in series [1] greater than 40 µg/mL. Further, the MIC was 1 µg/mL (≈ 2.56 µM) in series [2], 0.5 µg/mL (≈ 1.28 µM) in series [3] (setting [4]) and less than 1 µg/mL in series [3] (read-out: MIC value).

In series [1], `C[C@]1(Cn2cc(COc3ccc(Br)cc3)nn2)Cn2cc([N+](=O)[O-])nc2O1` [I11, (R)-2-((4-((4-Bromophenoxy)methyl)-1H-1,2,3-triazol-1-yl)methyl)-2-methyl-6-nitro-2,3-dihydroimidazo[2,1-b]oxazole] had a Cytotoxicity greater than 40 µg/mL. Also, the values for the MIC in series [2], in series [3] (setting [4]) and in series [3] (read-out: MIC value) were 0.25 µg/mL (≈ 0.574 µM), 0.12 µg/mL (≈ 0.276 µM) and less than 1 µg/mL, respectively.

`Cc1ccc(OCc2cn(C[C@@]3(C)Cn4cc([N+](=O)[O-])nc4O3)nn2)cc1` [I12, (R)-2-Methyl-6-nitro-2-((4-((p-tolyloxy)methyl)-1H-1,2,3-triazol-1-yl)methyl)-2,3-dihydroimidazo[2,1-b]oxazole]: in series [1], the Cytotoxicity is greater than 40 µg/mL. The results for the minimal inhibitory concentration (MIC) in series [2] and in series [3] (setting [4]) were 2 µg/mL (≈ 5.4 µM) and 1 µg/mL (≈ 2.7 µM), respectively.

In turn, `Cc1cccc(OCc2cn(C[C@@]3(C)Cn4cc([N+](=O)[O-])nc4O3)nn2)c1` [I13, (R)-2-Methyl-6-nitro-2-((4-((m-tolyloxy)methyl)-1H-1,2,3-triazol-1-yl)methyl)-2,3-dihydroimidazo[2,1-b]oxazole] yielded a Cytotoxicity in series [1] greater than 40 µg/mL. Also, the minimal inhibitory concentration (MIC) in series [2] was 0.5 µg/mL (≈ 1.35 µM); in series [3] (setting [4]) it was 0.5 µg/mL (≈ 1.35 µM); in series [3] (read-out: MIC value), less than 1 µg/mL.

As for `Cc1ccccc1OCc1cn(C[C@@]2(C)Cn3cc([N+](=O)[O-])nc3O2)nn1` [I14, (R)-2-Methyl-6-nitro-2-((4-((o-tolyloxy)methyl)-1H-1,2,3-triazol-1-yl)methyl)-2,3-dihydroimidazo[2,1-b]oxazole], in series [1], the Cytotoxicity was greater than 40 µg/mL. The MIC was 2 µg/mL (≈ 5.4 µM) in series [2], 0.5 µg/mL (≈ 1.35 µM) in series [3] (setting [4]) and less than 1 µg/mL in series [3] (read-out: MIC value).

`CCc1ccc(OCc2cn(C[C@@]3(C)Cn4cc([N+](=O)[O-])nc4O3)nn2)cc1` [I15, (R)-2-((4-((4-Ethylphenoxy)methyl)-1H-1,2,3-triazol-1-yl)methyl)-2-methyl-6-nitro-2,3-dihydroimidazo[2,1-b]oxazole] registered a Cytotoxicity in series [1] greater than 40 µg/mL. The minimum inhibitory concentration (MIC) in series [2] and in series [3] (setting [4]) was 2 µg/mL (≈ 5.2 µM) each time.

On to `C[C@]1(Cn2cc(COc3cccc(F)c3)nn2)Cn2cc([N+](=O)[O-])nc2O1` [I16, (R)-2-((4-((3-Fluorophenoxy)methyl)-1H-1,2,3-triazol-1-yl)methyl)-2-methyl-6-nitro-2,3-dihydroimidazo[2,1-b]oxazole], for which the Cytotoxicity in series [1] is greater than 40 µg/mL. The MIC is 2 µg/mL (≈ 5.34 µM) in series [2] and 1 µg/mL (≈ 2.67 µM) in series [3] (setting [4]).

Molecule `C[C@]1(Cn2cc(COc3ccccc3F)nn2)Cn2cc([N+](=O)[O-])nc2O1` [I17, (R)-2-((4-((2-Fluorophenoxy)methyl)-1H-1,2,3-triazol-1-yl)methyl)-2-methyl-6-nitro-2,3-dihydroimidazo[2,1-b]oxazole] returned a Cytotoxicity in series [1] greater than 40 µg/mL. The minimum inhibitory concentration (MIC) in series [2] is 0.5 µg/mL (≈ 1.34 µM); in series [3] (setting [4]), 0.25 µg/mL (≈ 0.668 µM); in series [3] (read-out: MIC value), less than 1 µg/mL.

In series [1], `CC(C)c1ccc(OCc2cn(C[C@@]3(C)Cn4cc([N+](=O)[O-])nc4O3)nn2)cc1` [I18, (R)-2-((4-((4-Isopropylphenoxy)methyl)-1H-1,2,3-triazol-1-yl)methyl)-2-methyl-6-nitro-2,3-dihydroimidazo[2,1-b]oxazole] gave a Cytotoxicity greater than 40 µg/mL. Further, the minimal inhibitory concentration (MIC) in series [2] is 1 µg/mL (≈ 2.51 µM); in series [3] (setting [4]), 0.5 µg/mL (≈ 1.25 µM); in series [3] (read-out: MIC value) it was less than 1 µg/mL.

`C[C@]1(Cn2cc(COc3ccccn3)nn2)Cn2cc([N+](=O)[O-])nc2O1` [I19, (R)-2-Methyl-6-nitro-2-((4-((pyridin-2-yloxy)methyl)-1H-1,2,3-triazol-1-yl)methyl)-2,3-dihydroimidazo[2,1-b]oxazole] returned a Cytotoxicity in series [1] greater than 40 µg/mL. The minimum inhibitory concentration (MIC) in series [2] worked out at 2 µg/mL (≈ 5.6 µM); in series [3] (setting [4]), 1 µg/mL (≈ 2.8 µM).

`Cc1ccc(SCc2cn(C[C@@]3(C)Cn4cc([N+](=O)[O-])nc4O3)nn2)cc1` [I20, (R)-2-Methyl-6-nitro-2-((4-((p-tolylthio)methyl)-1H-1,2,3-triazol-1-yl)methyl)-2,3-dihydroimidazo[2,1-b]oxazole] registered a Cytotoxicity in series [1] greater than 40 µg/mL. Moreover, the MIC in series [2] was found to be 1 µg/mL (≈ 2.59 µM); in series [3] (setting [4]), 2 µg/mL (≈ 5.18 µM).

Molecule `Cc1ccc(OCCc2cn(C[C@@]3(C)Cn4cc([N+](=O)[O-])nc4O3)nn2)cc1` [I21, (R)-2-Methyl-6-nitro-2-((4-(2-(p-tolyloxy)ethyl)-1H-1,2,3-triazol-1-yl)methyl)-2,3-dihydroimidazo[2,1-b]oxazole] registered a Cytotoxicity in series [1] greater than 40 µg/mL. In addition, the MIC was 0.25 µg/mL (≈ 0.65 µM) in series [2], 0.25 µg/mL (≈ 0.65 µM) in series [3] (setting [4]) and less than 1 µg/mL in series [3] (read-out: MIC value).

`C[C@]1(Cn2cc(CN3CCOCC3)nn2)Cn2cc([N+](=O)[O-])nc2O1` [I22, (R)-2-Methyl-2-((4-(morpholinomethyl)-1H-1,2,3-triazol-1-yl)methyl)-6-nitro-2,3-dihydroimidazo[2,1-b]oxazole]: the Cytotoxicity in series [1] was greater than 40 µg/mL. Moreover, the minimal inhibitory concentration (MIC) in series [2] is 1 µg/mL (≈ 2.86 µM); in series [3] (setting [4]), 2 µg/mL (≈ 5.72 µM).
